In US4150029A, “3-Aryl 2-oxazolidinones, their process of preparation and their therapeutical application” (Delalande S.A., priority 1976, dated 1979):
Where two headings read alike, the source gives them in different places.

Tests used:
[1] = test system: ptosis observed one hour after an intravenous injection of reserpine; assay: Test B: antagonism of reserpine-induced ptosis in the mouse; assay type: in vivo; settings: po, 1 h, p.o., reserpine 2 mg/kg i.v., read-out: Test B 50 DE
Experimental: Antagonism in relation to ptosis observed one hour after an intravenous injection (2 mg/kg) of reserpine was given to a mouse, according to the mode of operation described by GOURET C. and THOMAS J. in J. Pharmacol. (PARIS), (1973), 4, 401.

[2] = test system: generalised trembling caused by an intraperitoneal injection of dl-5-hydroxytryptophane; assay: Test A: potentiation of generalised trembling caused by dl-5-hydroxytryptophane in the mouse; assay type: in vivo; settings: po, read-out: Test A 50 DE
Experimental: Potentiation in a mouse of generalised trembling caused by an intraperitoneal injection (200 mg/kg) of dl-5-hydroxytryptophane, according to the mode of operation described by GOURET C. and RAYNAUD G. in the J. Pharmacol. (PARIS), (1974), 5, 231.

[3] = Acute toxicity in mice; settings: mouse, in vivo, po; for LD50: acute toxicity, read-out: 50 DL
[4] = test system: pontogeniculo-occipital points (P.G.O.) caused by reserpine; assay: Test C: diminution in density of reserpine-induced pontogeniculo-occipital (P.G.O.) points in the cat; assay type: in vivo; settings: Felis catus, po, reserpine 0.5 mg/kg, read-out: Test C 50 DE
Experimental: Diminution in the density of pontogeniculo-occipital points (P.G.O.) caused by injecting a cat with 0.5 mg/kg of reserpine, according to the mode of operation described by COSTON A. and GOURET C. in J. Pharmacol. (PARIS), (1976), 7, 409.

[5] = mouse, p.o., dl-5-hydroxytryptophane 200 mg/kg i.p.

Row | Structure (SMILES) | ED50 [1] | ED50 [2, 5] | LD50 [3] | ED50 [4] | ED50 ([2]; Mus musculus) | mortality ([3]; dose administered 2000 mg/kg/p.o.) | mortality ([3]; dose administered 1000 mg/kg/p.o.)
1 | Cc1cccc(N2CC(CO)OC2=O)c1 (stereo not drawn) [TOLOXATONE, reference compound] | 50 mg/kg | 60 mg/kg | 1850 mg/kg | 28 mg/kg |  |  | 
2 | O=C1OC(CO)CN1c1cccc([N+](=O)[O-])c1 (stereo not drawn) [compound 740511, 5-hydroxymethyl-3-metanitrophenyl-2 oxazolidinone] | 17 mg/kg | 55 mg/kg |  | 40 mg/kg |  |  | 
3 | CCc1cccc(N2CC(CO)OC2=O)c1 (stereo not drawn) [compound 740512] | 32 mg/kg | 68 mg/kg |  | 50 mg/kg |  |  | 
4 | O=C1OC(CO)CN1c1ccc([N+](=O)[O-])cc1 (stereo not drawn) [compound 740564] | 42 mg/kg | 38 mg/kg | > 1000 mg/kg | 16 mg/kg |  |  | 
5 | CNC(=O)OCC1CN(c2cccc(C(F)(F)F)c2)C(=O)O1 (stereo not drawn) [compound 740704] | 12 mg/kg |  |  | 52 mg/kg | 42 mg/kg | 0% | 
6 | CC(C)NC(=O)OCC1CN(c2cccc(C(F)(F)F)c2)C(=O)O1 (stereo not drawn) [compound 740711] | 26 mg/kg | 19 mg/kg |  |  |  |  | 0%
7 | Cc1ccc(N2CC(CO)OC2=O)cc1C (stereo not drawn) [compound 750341] | 41 mg/kg | 100 mg/kg |  | 22 mg/kg |  |  | 
8 | O=C1OC(CO)CN1c1cccc(Br)c1 (stereo not drawn) [compound 750710] | 100 mg/kg | 62 mg/kg |  | 14 mg/kg |  |  | 
9 | CCOc1ccc(N2CC(COC(=O)NC)OC2=O)cc1 (stereo not drawn) [compound 760104] | 44 mg/kg |  |  | > 50 mg/kg | 48 mg/kg |  | 
10 | CC(C)Oc1ccc(N2CC(CO)OC2=O)cc1 (stereo not drawn) [compound 760116] | 50 mg/kg | 60 mg/kg |  | 15 mg/kg |  |  | 
11 | CN(C)c1ccc(N2CC(CO)OC2=O)cc1 (stereo not drawn) [compound 760133] | 7.2 mg/kg | 11 mg/kg |  | 4.5 mg/kg |  |  | 
12 | CCCOc1ccc(N2CC(CO)OC2=O)cc1 (stereo not drawn) [compound 760303] | 14 mg/kg | 9 mg/kg |  | 6.9 mg/kg |  |  | 
13 | C=CCOc1ccc(N2CC(CO)OC2=O)cc1 (stereo not drawn) [compound 760306] | 29 mg/kg | 14 mg/kg |  | 2.5 mg/kg |  |  | 
14 | C#CCOc1ccc(N2CC(CO)OC2=O)cc1 (stereo not drawn) [compound 760307] | 14 mg/kg | 8 mg/kg |  | 5 mg/kg |  |  | 
15 | CCN(CC)c1ccc(N2CC(CO)OC2=O)cc1 (stereo not drawn) [compound 760311] | 32 mg/kg | 27 mg/kg |  | 9 mg/kg |  |  | 
16 | O=C1OC(CO)CN1c1ccc(OC2CCCCC2)cc1 (stereo not drawn) [compound 760314] | 18 mg/kg | 19 mg/kg |  | 12 mg/kg |  |  | 
17 | O=C1OC(CO)CN1c1ccc(OCCc2ccccc2)cc1 (stereo not drawn) [compound 760317] | 17 mg/kg | 25 mg/kg |  | 45 mg/kg |  |  | 
18 | O=C1OC(CO)CN1c1ccc(OCc2ccc(Cl)cc2)cc1 (stereo not drawn) [compound 760337] | 5 mg/kg | 6 mg/kg |  | 120 mg/kg |  |  | 
19 | CN(Cc1ccccc1)c1ccc(N2CC(CO)OC2=O)cc1 (stereo not drawn) [compound 760375, 5-hydroxymethyl 3-p-N-benzyl N-methylaminophenyl 2-oxazolidinone] | 28 mg/kg | 39 mg/kg |  | 160 mg/kg |  |  | 

Row | Structure (SMILES) | ED50 [1] | ED50 [2, 5] | LD50 [3] | ED50 [4] | ED50 ([2]; Mus musculus) | mortality ([3]; dose administered 2000 mg/kg/p.o.) | mortality ([3]; dose administered 1000 mg/kg/p.o.)
20 | CNc1ccc(N2CC(CO)OC2=O)cc1 (stereo not drawn) [compound 760395, 5-hydroxymethyl 3-p-N-methylaminophenyl 2-oxazolidinone] | 28 mg/kg | 39 mg/kg |  | 160 mg/kg |  |  | 
21 | CCCCCOc1ccc(N2CC(CO)OC2=O)cc1 (stereo not drawn) [compound 760396] | 1.4 mg/kg | 12 mg/kg |  | 20 mg/kg |  |  | 
22 | CNC(=O)OCC1CN(c2ccc(OCc3ccccc3)cc2)C(=O)O1 (stereo not drawn) [compound 760409] | 7 mg/kg |  |  | > 50 mg/kg | 100 mg/kg |  | 
23 | CC(C)COc1ccc(N2CC(CO)OC2=O)cc1 (stereo not drawn) [compound 760414] | 3 mg/kg | 13 mg/kg |  | 5.5 mg/kg |  |  | 
24 | O=C1OC(CO)CN1c1ccc(OCc2ccc(F)cc2)cc1 (stereo not drawn) [compound 760432] | 2 mg/kg | 3.8 mg/kg |  | 24 mg/kg |  |  | 
25 | O=C1OC(CO)CN1c1ccc(OCc2cccc(F)c2)cc1 (stereo not drawn) [compound 760453] | 7 mg/kg | 5.5 mg/kg |  | 11.6 mg/kg |  |  | 
26 | CCSc1ccc(N2CC(CO)OC2=O)cc1 (stereo not drawn) [compound 760466] | 32 mg/kg | 40 mg/kg |  | 8.25 mg/kg |  |  | 
27 | CCCCSc1ccc(N2CC(CO)OC2=O)cc1 (stereo not drawn) [compound 760473] | 22 mg/kg | 41 mg/kg |  | 11.5 mg/kg |  |  | 
28 | O=C1OC(CO)CN1c1ccc(N2CCCC2)cc1 (stereo not drawn) [compound 760474] | 68 mg/kg | 42 mg/kg |  | 14 mg/kg |  |  | 
29 | Cc1cccc(COc2ccc(N3CC(CO)OC3=O)cc2)c1 (stereo not drawn) [compound 760533] | 54 mg/kg | 41 mg/kg |  | 51 mg/kg |  |  | 
30 | C=C(C)COc1ccc(N2CC(CO)OC2=O)cc1 (stereo not drawn) [compound 760535] | 50 mg/kg | 28 mg/kg |  | 5.1 mg/kg |  |  | 
31 | C=CCCOc1ccc(N2CC(CO)OC2=O)cc1 (stereo not drawn) [compound 760536] | 15 mg/kg | 8.6 mg/kg |  | 6.3 mg/kg |  |  | 
32 | Cc1ccccc1COc1ccc(N2CC(CO)OC2=O)cc1 (stereo not drawn) [compound 760537] | 17 mg/kg | 35 mg/kg |  | 37.5 mg/kg |  |  | 
33 | O=C1OC(CO)CN1c1ccc(OCc2cccc(Cl)c2)cc1 (stereo not drawn) [compound 760548] | 3.4 mg/kg | 4.4 mg/kg |  | 33.5 mg/kg |  |  | 
34 | CCCCCCOc1ccc(N2CC(CO)OC2=O)cc1 (stereo not drawn) [compound 760549] | 11 mg/kg | 26 mg/kg |  | 85 mg/kg |  |  | 
35 | O=C1OC(CO)CN1c1ccc(OCc2cccc(C(F)(F)F)c2)cc1 (stereo not drawn) [compound 760556] | 3.2 mg/kg | 5 mg/kg |  | 14.1 mg/kg |  |  | 
36 | O=C1OC(CO)CN1c1ccc(OCc2ccc(Br)cc2)cc1 (stereo not drawn) [compound 760574] | 22 mg/kg | 21 mg/kg |  | > 50 mg/kg |  |  | 
37 | CCCSc1ccc(N2CC(CO)OC2=O)cc1 (stereo not drawn) [compound 760600] | 15.4 mg/kg | 19 mg/kg |  | 6.26 mg/kg |  |  | 
38 | O=C1OC(CO)CN1c1ccc(SC2CCCCC2)cc1 (stereo not drawn) [compound 760621] | 42 mg/kg | 100 mg/kg |  | 40 mg/kg |  |  | 

Row | Structure (SMILES) | ED50 [1] | ED50 [2, 5] | LD50 [3] | ED50 [4] | ED50 ([2]; Mus musculus) | mortality ([3]; dose administered 2000 mg/kg/p.o.) | mortality ([3]; dose administered 1000 mg/kg/p.o.)
39 | O=C1OC(CO)CN1c1ccc(OCc2ccc([N+](=O)[O-])cc2)cc1 (stereo not drawn) [compound 760622] | 2.1 mg/kg | 5.5 mg/kg |  | 40 mg/kg |  |  | 
40 | CC(C)=CCOc1ccc(N2CC(CO)OC2=O)cc1 (stereo not drawn) [compound 760650] | 3.4 mg/kg | 25.5 mg/kg |  | 7.03 mg/kg |  |  | 
41 | N#CCOc1ccc(N2CC(CO)OC2=O)cc1 (stereo not drawn) [compound 760651, 5-hydroxymethyl 3-p-cyanomethyloxyphenyl 2-oxazolidinone] | 2.5 mg/kg | 5.5 mg/kg |  | 1.5 mg/kg |  |  | 
42 | CC(=O)COc1ccc(N2CC(CO)OC2=O)cc1 (stereo not drawn) [compound 760652] | 2.8 mg/kg | 7.1 mg/kg |  | 13 mg/kg |  |  | 
43 | C#CCOc1ccc(N2CC(COC(=O)NC)OC2=O)cc1 (stereo not drawn) [compound 760658] | 27 mg/kg |  |  | 13.9 mg/kg | > 12.5 mg/kg |  | 
44 | CNC(=O)OCC1CN(c2ccc(OCC#N)cc2)C(=O)O1 (stereo not drawn) [compound 760660, 5-N-methylcarbamoyloxymethyl 3-p-cyanomethyloxyphenyl 2-oxazolidinone] | 31 mg/kg |  |  | 12.3 mg/kg | > 12.5 mg/kg |  | 
45 | CCCCOc1ccc(N2CC(COC(=O)NC)OC2=O)cc1 (stereo not drawn) [compound 760662] | 17.5 mg/kg |  |  | 23 mg/kg | 48 mg/kg |  | 
46 | CC(=O)c1ccc(N2CC(CO)OC2=O)cc1 (stereo not drawn) [compound 760670] | 10 mg/kg | 21 mg/kg |  | 14 mg/kg |  |  | 
47 | CNC(=O)OCC1CN(c2ccc(OCc3ccc([N+](=O)[O-])cc3)cc2)C(=O)O1 (stereo not drawn) [compound 760676] | 6.25 mg/kg |  |  | 22 mg/kg | > 12.5 mg/kg |  | 
48 | CNC(=O)OCC1CN(c2ccc(OCC(C)C)cc2)C(=O)O1 (stereo not drawn) [compound 760712] | 25 mg/kg |  |  | 35 mg/kg | 48 mg/kg |  | 
49 | CNC(=O)OCC1CN(c2ccc(OCc3ccc(F)cc3)cc2)C(=O)O1 (stereo not drawn) [compound 760717] | 12.5 mg/kg |  |  | > 50 mg/kg | > 12.5 mg/kg |  | 
50 | CC(C)NC(=O)OCC1CN(c2ccc(OCc3ccccc3)cc2)C(=O)O1 (stereo not drawn) [compound 760723] | 17.5 mg/kg | > 50 mg/kg |  | > 50 mg/kg |  |  | 
51 | CNC(=O)OCC1CN(c2ccc(OCc3cccc(Cl)c3)cc2)C(=O)O1 (stereo not drawn) [compound 760729] | 23 mg/kg |  |  | 50 mg/kg | > 12.5 mg/kg |  | 
52 | CNC(=O)OCC1CN(c2ccc(C(C)=O)cc2)C(=O)O1 (stereo not drawn) [compound 760731] | 15 mg/kg |  |  | 17.5 mg/kg | > 25 mg/kg |  | 
53 | CNC(=O)OCC1CN(c2ccc(SC)cc2)C(=O)O1 (stereo not drawn) [compound 760786] | 40 mg/kg |  |  | 25.5 mg/kg | > 50 mg/kg |  | 
54 | C/C=C/COc1ccc(N2CC(CO)OC2=O)cc1 (stereo not drawn) [compound 760827] | 10 mg/kg | 15 mg/kg |  | 5.2 mg/kg |  |  | 
55 | CC#CCOc1ccc(N2CC(CO)OC2=O)cc1 (stereo not drawn) [compound 760877] | 25 mg/kg | 25 mg/kg |  | 5.6 mg/kg |  |  | 
56 | N#Cc1ccc(COc2ccc(N3CC(CO)OC3=O)cc2)cc1 (stereo not drawn) [compound 760881] | 5 mg/kg | 12.5 mg/kg |  | 29 mg/kg |  |  | 
